# Source: US11771669B2, “Topical composition and delivery system and its use” (SBG MEDICAL TECHNOLOGIES, INC., priority 2012, dated 2023)
# How the values were obtained:
# rat cornea = conditions: topical application onto the rat cornea, cited from earlier work
# acute pain = conditions: 34 subjects
# Method: As indicated, 10 mL of venous blood was collected throughout the study period, at time intervals likely to capture peak and trough levels (Greenblatt D J et al. (1985). Arch Otolaryngol 111: 2988-3000); (Baumann L S, et al. (2010). J Drugs Dermatol 9: 1500-1504). Each subject provided self-rated pain evaluations at those same time intervals, focusing on pain at the identified site of acute pain and of drug application, using the 1-10 Visual Analog Scale (VAS) (Meier T, et al. (2003). Pain 106: 151-158).
# The central data used to describe efficacy was the 10-point VAS. While this measure is subjective, the study subjects were requested specifically to be consistent in their pain estimates.
# [1] = animal models, topical; cited from earlier work
molecule,measurement,setting,value
"O=C(O)CN(CCN(CC(=O)O)CC(=O)O)CC(=O)O [EDTA, ethylenediaminetetraacetic acid]","Ocular uptake of C14 EDTA, applied with MSM",rat cornea; with MSM,uptake of the C^14 EDTA in all tested ocular tissues
same,"Ocular penetration of EDTA, without MSM",rat cornea; without MSM,did not penetrate the eye
"CCN(CC)CC(=O)Nc1c(C)cccc1C [lidocaine, 2-(diethylamino)-N-(2,6-dimethylphenyl)acetamide]",Number of subjects with maximum pain relief at the 1 hour point,acute pain; doses at 0 and 4 h,9 subjects
same,Subjects whose time elapsed to reach maximal pain reduction was 1 h,acute pain; doses at 0 and 4 h,27%
same,Subjects whose time elapsed to reach maximal pain reduction was 3 h,acute pain; doses at 0 and 4 h,21%
same,Subjects whose time elapsed to reach maximal pain reduction was 5 h,acute pain; doses at 0 and 4 h,18%
same,Subjects whose time elapsed to reach maximal pain reduction was 7 h,acute pain; doses at 0 and 4 h,9%
same,Subjects whose time elapsed to reach maximal pain reduction was 9 h,acute pain; doses at 0 and 4 h,12%
same,Subjects whose time elapsed to reach maximal pain reduction was 11 h,acute pain; doses at 0 and 4 h,6%
same,Number of subjects with pain relief at 50% or better,acute pain; maximal pain reduction,28 of 34
same,Subjects with pain reduction of 50% or greater,acute pain; maximal pain reduction,82%
methylsulfonylmethane [MSM],Toxicity when administered topically (in words),[1],very low toxicity
